Reference: the NIST ThermoML archive (doi:10.1016/j.jct.2014.07.018)
Numbers after ± are expanded uncertainties.

Assay: Molar enthalpy of transition or fusion
Settings: Adiabatic calorimetry

Molar enthalpy of transition or fusion (Crystal) | Molar enthalpy of transition or fusion (Crystal 2) | Compound
4.539 ± 0.0191 kcal/mol |  | CCCCn1cc[n+](C)c1.[I-] [1-butyl-3-methylimidazolium iodide]
 | 4.567 ± 0.0335 kcal/mol | CCC[n+]1ccn(C)c1.[Br-] [1-methyl-3-propylimidazolium bromide]
